Values belong to the compound of their own block, whether it stands above or below them.
Experiments:
[1] = test system: U87MG cells; assay: Anti-proliferation assay; type: cell-based; conditions: Homo sapiens, U-87 MG, 72 h, read-out: anti-proliferation IC50
[2] = test system: U87MG cells; assay: Cell-cycle analysis; type: cell-based, human; conditions: 10 µM, 24 h, PI labeling
[3] = test system: U87MG subcutaneous xenografts; assay: Anti-glioblastoma study in subcutaneous U87MG tumor model; type: in vivo, Balb/c nude mice; conditions: 50 mg/kg oral every 2 days until 9th day, n = 8; saline 8.3-fold
[4] = target: Integrin αvβ3 (UniProt P06756); assay: SPR

IC50 [1]: 7.6 µM
Compound: COc1ccc(C2=N[C@@H](c3ccc(Cl)cc3)[C@@H](c3ccc(Cl)cc3)N2C(=O)N2CCNC(=O)C2)c(OC(C)C)c1 [Nutlin-3]
cell-cycle arrest [2]: effective cell-cycle arrest in the G1 and G2 phases

Compound: Cn1nnc2c(C(N)=O)ncn2c1=O [TMZ, temozolomide]
tumor size fold increase on day 14 versus start of treatment [3]: 0.3 fold

Kd [4]: 4.05 µM
Compound: c(RGDyK)-conjugated poly(ethylene glycol)-block-poly(lactic acid) micelle carrying the sPMI peptide

— article PMC5878090 (Journal of controlled release : official journal of the …, 2015)
